{
  "source": "patent US20060014197A1",
  "about": "“In vivo screening methods for identifying inhibitors of RNA polymerases” (priority 2004, published 2006)",
  "key": {"[1]": {"target": "T1, amanitin-resistant RNAPII (human RPB1 N792D) (Homo sapiens, UniProt P24928, N792D)", "T1 construct": "expressed in transfected cells; host or cells: human HeLa or 293 cells transfected with the RPB1 plasmid and pGFP", "experiment": "Tet-ON GFP reporter assay in transfected eukaryotic cells expressing amanitin-resistant RPB1", "type": "cell-based", "settings": "human HeLa or 293 cells with plasmid-expressed amanitin-resistant RPB1, amanitin added, doxycycline induction, 48 hours; FIG. 7B"}, "resident RNAPII": {"target": "T2, resident RNAPII (Homo sapiens, UniProt P24928)", "T2 construct": "endogenous in cells; host or cells: human HeLa or 293 cells", "experiment": "Tet-ON GFP reporter assay in transfected eukaryotic cells, no amanitin-resistant RPB1 expressed", "type": "cell-based", "settings": "human HeLa or 293 cells, amanitin added, doxycycline induction, 48 hours; FIG. 7B"}},
  "data": [
    {"molecule": "CC[C@H](C)[C@@H]1NC(=O)CNC(=O)[C@@H]2Cc3c([nH]c4cc(O)ccc34)[S+]([O-])C[C@@H](NC(=O)CNC1=O)C(=O)N[C@@H](CC(N)=O)C(=O)N1C[C@H](O)C[C@H]1C(=O)N[C@@H]([C@@H](C)[C@@H](O)CO)C(=O)N2", "note": "(stereo partly drawn) [amanitin, alpha-amanitin]", "values": [
      {"measurement": "GFP fluorescent signal (flow cytometer)", "setting": "[1]", "result": "results in fluorescent signal"},
      {"measurement": "GFP fluorescent signal (flow cytometer)", "setting": "resident RNAPII", "result": "no fluorescent signal is observed"}
    ]}
  ]
}
